In patent US9839618B2, “Compositions and methods relating to proliferative diseases” (The Penn State Research Foundation, priority 2010, dated 2017) one finds cytotoxicity data, which are given here for one molecule.

This experiment concerns UACC 903 melanoma cells. Nature of the experiment: Natural product library NPL-480 primary screen, MTS viability. Format: cell-based. The settings on record: Homo sapiens, 5 μmol/L, 24 hours, MTS assay, read-out: decrease of cell viability. On the procedure: Natural product library NPL-480 (from TimTec Inc., Newark, Del.) consisting of 480 compounds derived from plants, animal, bacteria and fungus is screened using MTS assay to identify agents reducing cell growth of melanoma cells. Compounds of the NPL-480 library that are supplied as powders or oils are dissolved in DMSO to a stock concentration of 10 mM and stored at −20° C. DMSO concentrations in the reaction mixture are controlled to not exceed 0.5% (vol/vol). 5×10^3 UACC 903 melanoma cells are plated in 96 well plates for 24 hours followed by treatment with each compound at 5 μmol/L for 24 hours. Viability is measured using the MTS assay as described in Sharma, A. et al., Clin Cancer Res, 2009, 15:1674-85; and Madhunapantula, S. V. et al., Mol Cancer Ther, 2008, 7:1297-308. This primary screen identified 12 compounds effective to decrease melanoma cells viability by ˜50% or more.
(In general: Tetrazolium assays rely on reduction of a dye to a coloured formazan, in cell work by metabolically active cells.)

On to `CC(C)c1ccc2c(c1)CCC1[C@](C)(CN)CCC[C@]21C` (stereo partly drawn) [Leelamine, [(1R,4aS)-1,4a-dimethyl-7-(propan-2-yl)-1,2,3,4,4a,9,10,10a-octahydrophenanthren-1-yl]methanamine], for which the cytotoxicity at 5 µM is ~95%.
